Patent US9409952B2, “Peptide-compound cyclization method” (Chugai Seiyaku Kabushiki Kaisha, priority 2011, dated 2016)
Like-named read-outs stand apart in the source and are kept apart here. Starred links: 1 amine or outer side, 2 acyl side, 3 side chain; linkers in the order of their positions; H or OH if unused. Non-standard residues stand in square brackets, D forms with d. Residues, ends and D or L forms follow the SMILES beside them. *: point of attachment. NMePhe(3-Cl) = CN[C@@H](Cc1cccc(Cl)c1)C(=O)O; NMeF = CN[C@@H](Cc1ccccc1)C(=O)O; NMeI = CC[C@H](C)[C@H](NC)C(=O)O; NMeβAla = CN(CCC(=O)[*:2])[*:1]; NMeL = CN[C@@H](CC(C)C)C(=O)O; NMeV = CN[C@H](C(=O)O)C(C)C; NMeA = CN[C@@H](C)C(=O)O; dNMeA = CN[C@H](C)C(=O)O; β3hA = C[C@H](N)CC(=O)O; Sar = CNCC(=O)O; tBu = CC(C)(C)*

Key:
[1] = PAMPA (parallel artificial membrane permeability assay); type: in vitro ADME; conditions: PAMPA
Summary of the method: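 Artificial membrane was 10% (w/v) egg lecithin plus 0.5% (w/v) cholesterol in dodecane on a PVDF filter. A 10 mM DMSO stock was added at 0.5% (v/v) to donor buffer (50 mM MOPSO, pH 6.5, 5.0% glycocholic acid). After 18 h at 37 °C, LC/MS or LC/UV gave donor and acceptor levels for Pe.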

[2] = Metabolic stability in human hepatic microsome; type: in vitro ADME; conditions: microsomes
[3] = membrane permeation rate (Pe), 50 mM MOPSO buffer pH 6.5 with 5.0% glycocholic acid, 37° C., 18 hours, read-out: iPAMPA Pe
[4] = pH 7.4, human hepatic microsome, NADPH(+), read-out: CL NADPH(+)

SMILES	Papp at 18 hours, 50 µM ([1]; pH 6.5)	microsomal CLint at 1 uM ([2]; human, pH 7.4, CL NADPH(+))	Papp at 18 hours, 50 µM [1, 3]	microsomal CLint at 1 uM [2, 4]
CC[C@H](C)[C@H]1C(=O)NCC(=O)N(C)[C@@H](Cc2ccccc2)C(=O)N[C@@H]([C@@H](C)O)C(=O)N(C)[C@@H](C)C(=O)N[C@@H](CC(C)C)C(=O)N[C@@H](C)CC(=O)N(C)[C@H](C)C(=O)N(C)[C@@H](C)C(=O)N[C@@H](Cc2ccccc2)C(=O)N(C)[C@@H](CC(C)C)C(=O)N[C@@H](C(C)C)C(=O)N1C [DP-755] (cyclo(F[NMeL]V[NMeI]G[NMeF]T[NMeA]L[β3hA][dNMeA][NMeA]))			36 ×10⁻⁶ cm/s	144 µL/min/mg
CC[C@H](C)[C@H]1C(=O)N[C@@H](C)C(=O)N(C)[C@@H](CC(C)C)C(=O)N[C@@H](COC(C)(C)C)C(=O)N(C)[C@@H](CC(C)C)C(=O)N[C@@H](C)CC(=O)N(C)CCC(=O)N[C@@H](Cc2ccccc2)C(=O)N(C)[C@@H](Cc2ccccc2)C(=O)N(C)[C@@H](CC(C)C)C(=O)N[C@@H]([C@@H](C)O)C(=O)N(C)[C@@H](C)C(=O)N1C [DP-756] (cyclo(A[NMeL]S(tBu)[NMeL][β3hA][NMeβAla]F[NMeF][NMeL]T[NMeA][NMeI]))	30 ×10⁻⁶ cm/s	65 µL/min/mg		
CC(C)C[C@H]1C(=O)N(C)[C@@H](C)C(=O)N[C@@H](C)C(=O)N[C@@H](C)CC(=O)N(C)CCC(=O)N(C)[C@@H](Cc2ccccc2)C(=O)N(C)[C@@H](C)C(=O)N[C@@H]([C@@H](C)O)C(=O)N(C)[C@@H](C)C(=O)N[C@@H](Cc2ccccc2)C(=O)N(C)[C@@H](C(C)C)C(=O)N1C [DP-763] (cyclo(A[β3hA][NMeβAla][NMeF][NMeA]T[NMeA]F[NMeV][NMeL][NMeA]))	2.5 ×10⁻⁶ cm/s	15 µL/min/mg		
CC(C)C[C@@H]1NC(=O)[C@H](CC(C)C)N(C)C(=O)[C@H](C)NC(=O)[C@H](C(C)C)N(C)C(=O)[C@H](Cc2ccccc2)NC(=O)CN(C)C(=O)[C@H]([C@@H](C)O)NC(=O)[C@H](C)N(C)C(=O)[C@H](CC(C)C)N(C)C(=O)[C@@H](C)NC(=O)C[C@H](C)NC1=O [DP-764] (cyclo(A[NMeL]L[β3hA][dA][NMeL][NMeA]T[Sar]F[NMeV]))			5 ×10⁻⁶ cm/s	27 µL/min/mg
CC(C)C[C@H]1C(=O)N[C@@H](C)C(=O)N(C)[C@@H](C)C(=O)N[C@@H](C)CC(=O)N(C)[C@@H](C)C(=O)N[C@@H]([C@@H](C)O)C(=O)N(C)CC(=O)N(C)[C@@H](Cc2ccccc2)C(=O)N(C)[C@@H](Cc2ccccc2)C(=O)N(C)[C@@H](C)C(=O)N2CCC[C@H]2C(=O)N1C [DP-765] (cyclo(A[NMeA][β3hA][NMeA]T[Sar][NMeF][NMeF][NMeA]P[NMeL]))	3 ×10⁻⁶ cm/s	13 µL/min/mg		
CC(C)C[C@H]1C(=O)N(C)[C@@H](C)C(=O)N(C)[C@@H](C)C(=O)N(C)[C@@H](Cc2ccccc2)C(=O)N[C@@H]([C@@H](C)O)C(=O)N(C)[C@@H](Cc2ccccc2)C(=O)N(C)[C@@H](CC(C)C)C(=O)N2CCC[C@H]2C(=O)N[C@@H](C)CC(=O)N[C@@H](C)C(=O)NCC(=O)N1C [DP-766] (cyclo(AG[NMeL][NMeA][NMeA][NMeF]T[NMeF][NMeL]P[β3hA]))	13 ×10⁻⁶ cm/s	54 µL/min/mg		
CC[C@H](C)[C@H]1C(=O)N(C)[C@@H](C)C(=O)N(C)[C@@H](Cc2ccccc2)C(=O)N[C@@H]([C@@H](C)O)C(=O)N(C)[C@@H](Cc2ccccc2)C(=O)N(C)[C@@H](CC(C)C)C(=O)N2CCC[C@H]2C(=O)N[C@@H](C)CC(=O)N[C@@H](C)C(=O)NCC(=O)N(C)[C@@H](CC(C)C)C(=O)N1C [DP-767] (cyclo(AG[NMeL][NMeI][NMeA][NMeF]T[NMeF][NMeL]P[β3hA]))	30 ×10⁻⁶ cm/s	34 µL/min/mg		
CC(C)C[C@H]1C(=O)N2CCC[C@H]2C(=O)N(C)[C@@H](CC(C)C)C(=O)N[C@@H](C)C(=O)N(C)[C@@H](C(C)C)C(=O)N[C@@H](C)CC(=O)N(C)[C@@H](C)C(=O)N[C@@H]([C@@H](C)O)C(=O)N(C)CC(=O)N(C)[C@@H](Cc2ccccc2)C(=O)N(C)[C@@H](Cc2ccccc2)C(=O)N1C [DP-768] (cyclo(A[NMeV][β3hA][NMeA]T[Sar][NMeF][NMeF][NMeL]P[NMeL]))	25 ×10⁻⁶ cm/s	34 µL/min/mg		
CC[C@H](C)[C@@H]1NC(=O)[C@H](CC(C)C)N(C)C(=O)[C@H](C(C)C)N(C)C(=O)[C@H](C)NC(=O)[C@H](C)N(C)C(=O)[C@H](Cc2ccccc2)NC(=O)[C@H]([C@@H](C)O)NC(=O)[C@H](CC(C)C)N(C)C(=O)[C@H](CC(C)C)N(C)C(=O)[C@H](C)N(C)C(=O)C[C@H](C)NC1=O [DP-770] (cyclo(A[NMeV][NMeL]I[β3hA][NMeA][NMeL][NMeL]TF[NMeA]))	33 ×10⁻⁶ cm/s	95 µL/min/mg		
CC[C@H](C)[C@H]1C(=O)N[C@@H](COC(C)(C)C)C(=O)N(C)[C@@H](Cc2ccccc2)C(=O)N(C)[C@@H](C(C)C)C(=O)N[C@@H](C)CC(=O)N(C)[C@@H](C)C(=O)N(C)[C@@H](Cc2ccccc2)C(=O)N[C@@H](CC(C)C)C(=O)N(C)[C@@H](CC(C)C)C(=O)N[C@@H]([C@@H](C)O)C(=O)N(C)CC(=O)N1C [DP-771] (cyclo(L[NMeL]T[Sar][NMeI]S(tBu)[NMeF][NMeV][β3hA][NMeA][NMeF]))	47 ×10⁻⁶ cm/s	228 µL/min/mg		

Now from value to molecule, other results behind:

Papp at 18 hours, 50 µM ([1]; pH 6.5)	microsomal CLint at 1 uM ([2]; human, pH 7.4, CL NADPH(+))	SMILES	Papp at 18 hours, 50 µM [1, 3]	microsomal CLint at 1 uM [2, 4]
33 ×10⁻⁶ cm/s	124 µL/min/mg	CC[C@H](C)[C@H]1C(=O)NCC(=O)N(C)[C@@H](Cc2ccccc2)C(=O)N[C@@H]([C@@H](C)O)C(=O)N(C)[C@@H](CC(C)C)C(=O)N[C@@H](CC(C)C)C(=O)N[C@@H](C)CC(=O)N(C)[C@H](C)C(=O)N(C)[C@@H](CC(C)C)C(=O)N[C@@H](Cc2ccccc2)C(=O)N(C)[C@@H](CC(C)C)C(=O)N[C@@H](C(C)C)C(=O)N1C [DP-757] (cyclo(F[NMeL]V[NMeI]G[NMeF]T[NMeL]L[β3hA][dNMeA][NMeL]))		
24 ×10⁻⁶ cm/s	59 µL/min/mg	CC[C@H](C)[C@H]1C(=O)N[C@@H](CC(C)C)C(=O)N(C)[C@@H](CC(C)C)C(=O)N[C@@H](COC(C)(C)C)C(=O)N(C)[C@@H](CC(C)C)C(=O)N[C@@H](C)CC(=O)N(C)CCC(=O)N[C@@H](Cc2ccccc2)C(=O)N(C)[C@@H](Cc2ccccc2)C(=O)N(C)[C@@H](CC(C)C)C(=O)N[C@@H]([C@@H](C)O)C(=O)N(C)[C@@H](C)C(=O)N1C [DP-758] (cyclo(F[NMeF][NMeL]T[NMeA][NMeI]L[NMeL]S(tBu)[NMeL][β3hA][NMeβAla]))		
27 ×10⁻⁶ cm/s	144 µL/min/mg	CC[C@H](C)[C@H]1C(=O)N(C)[C@@H](C)C(=O)N(C)[C@@H](CC(C)C)C(=O)N[C@@H](COC(C)(C)C)C(=O)N(C)[C@@H](CC(C)C)C(=O)N[C@@H](C)CC(=O)N(C)[C@@H](C)C(=O)N(C)[C@@H](Cc2ccccc2)C(=O)N[C@@H](C)C(=O)N(C)[C@@H](CC(C)C)C(=O)N[C@@H]([C@@H](C)O)C(=O)N[C@@H](Cc2ccccc2)C(=O)N1C [DP-759] (cyclo(A[NMeL]TF[NMeI][NMeA][NMeL]S(tBu)[NMeL][β3hA][NMeA][NMeF]))		
28 ×10⁻⁶ cm/s	194 µL/min/mg	CC[C@H](C)[C@H]1C(=O)N[C@@H](C)C(=O)N(C)[C@@H](CC(C)C)C(=O)N[C@@H]([C@@H](C)O)C(=O)N[C@@H](Cc2ccccc2)C(=O)N(C)[C@@H](Cc2ccccc2)C(=O)N(C)[C@@H](CC(C)C)C(=O)N[C@@H](COC(C)(C)C)C(=O)N(C)[C@@H](CC(C)C)C(=O)N(C)[C@@H](C)C(=O)N[C@@H](C)CC(=O)N[C@H](C(C)C)C(=O)N1C [DP-760] (cyclo(A[NMeL]TF[NMeF][NMeL]S(tBu)[NMeL][NMeA][β3hA][dV][NMeI]))		
9.2 ×10⁻⁶ cm/s	118 µL/min/mg	CC[C@H](C)[C@H]1C(=O)N(C)[C@@H](C)C(=O)N(C)[C@@H](CC(C)C)C(=O)N[C@@H](COC(C)(C)C)C(=O)N(C)[C@@H](CC(C)C)C(=O)N[C@@H](C)CC(=O)N(C)[C@@H](C)C(=O)N(C)[C@@H](Cc2ccccc2)C(=O)N[C@@H](CC(C)C)C(=O)N(C)[C@@H](CC(C)C)C(=O)N[C@@H]([C@@H](C)O)C(=O)N[C@@H](Cc2ccccc2)C(=O)N1C [DP-761] (cyclo(F[NMeI][NMeA][NMeL]S(tBu)[NMeL][β3hA][NMeA][NMeF]L[NMeL]T))		
13 ×10⁻⁶ cm/s	81 µL/min/mg	CC[C@H](C)[C@H]1C(=O)NCC(=O)N(C)[C@@H](Cc2cccc(Cl)c2)C(=O)N[C@@H]([C@@H](C)O)C(=O)N(C)[C@@H](CC(C)C)C(=O)N[C@@H](CC(C)C)C(=O)N[C@@H](C)CC(=O)N(C)[C@H](C)C(=O)N(C)[C@@H](CC(C)C)C(=O)N[C@@H](Cc2ccccc2)C(=O)N(C)[C@@H](CC(C)C)C(=O)N[C@@H](C(C)C)C(=O)N1C [DP-762] (cyclo(F[NMeL]V[NMeI]G[NMePhe(3-Cl)]T[NMeL]L[β3hA][dNMeA][NMeL]))		
53 ×10⁻⁶ cm/s	78 µL/min/mg	CC[C@H](C)[C@@H]1NC(=O)[C@H](C)N(C)C(=O)[C@H]([C@@H](C)O)NC(=O)[C@H](C(C)C)N(C)C(=O)[C@H](CC(C)C)NC(=O)[C@H](CC(C)C)N(C)C(=O)[C@@H](C)N(C)C(=O)C[C@H](C)NC(=O)[C@H](Cc2ccccc2)NC(=O)[C@H](C)NC(=O)[C@H](Cc2ccccc2)N(C)C1=O [DP-769] (cyclo(AF[β3hA][dNMeA][NMeL]L[NMeV]T[NMeA]I[NMeF]))		
